What is called inhibition is the share of the control response that was lost under treatment.

This assay relates to IL-5 production in human blood. As to the kind of experiment: in vitro inhibition of IL-5 production in human blood (whole blood stimulated with phytohemagglutinin, IL-5 by ELISA). The settings on record: test dose 1×10^−6 M, phytohemagglutinin HA17 stimulation, 48 hours, read-out: % inh. (percentage inhibition of IL-5 production). The assay is classed as cell-based. How it is done:
in vitro Inhibition of IL-5 Production in Human Blood
Human Whole Blood Stimulation
Peripheral blood from healthy male donors was drawn into heparinized syringes (12.5 U heparin/ml). Blood samples were three-fold diluted in RMPI 1640 medium (Life Technologies, Belgium) supplemented with 2 mM L-glutamine, 100 U/ml penicillin and […] streptomycin, and […] fractions were distributed in 24-well multidisc plates. Blood samples were preincubated (60 minutes at 37° C.) in a humidified 6% CO2-atmosphere with 100 ml of drug solvent (final concentration 0.02% dimethylsulfoxide in RPMI 1640) or with 100 ml of an appropriate dose of test compound before being stimulated by the addition of […] of phytohemagglutinin HA17 (Murex, UK) at a final concentration of […]. After 48 hours, cell-free supernatant fluids were collected by centrifugation and stored at −70° C. until tested for the presence of IL-5.
IL-5 measurements were conducted as described in Van Wauwe et al. (1996, Inflamm Res, 45, 357-363) on page 358 using ELISA.
Table 1 lists the percentage inhibition of IL-5 production (column “% inh”) at a test dose of 1×10^−6 M for the compounds of the present invention.
(In general: In an ELISA, binding on a coated surface is turned into a signal by an enzyme label.)

For `CS(=O)(=O)c1ccc(C2(C(N)=S)CCc3cc(-n4ncc(=O)[nH]c4=O)ccc32)cc1` (centres unmarked) [Compound 6], the inhibition at 1 µM amounted to 6%.

With `Cc1sc(C2(c3ccc(S(C)(=O)=O)cc3)CCc3cc(-n4ncc(=O)[nH]c4=O)ccc32)nc1-c1ccccc1` (centres unmarked) [Compound 7], the inhibition at 1 µM is 39%.

For the origin of these results see patent US6469001B1, “IL-5 inhibiting 6-azauracil derivatives” (priority 1998, dated 2002).
